Test results: ChEMBL document CHEMBL1123972, “Drug-induced modifications of the immune response. 12. 4,5-Dihydro-4-oxo-2-(substituted amino)-3-furancarboxylic acids and derivatives as novel antiallergic agents” (1988)
Structures can show the parent of a compound that is named as a salt.

How the values were obtained:
Format in all cases: functional
[1] = tested on: Rattus norvegicus; assay: Antiallergic activity evaluated as percent inhibition at intraperitoneal dose of 100 mg/kg in rats; settings: for inhibition in vivo at 100 mg/kg: Rattus norvegicus, ip
[2] = tested on: Rattus norvegicus; assay: Antiallergic activity of edema in the active anaphylaxis assay at a intraperitoneal dose of 100 mg/kg in rats; set-up: unit not given here
[3] = tested on: Rattus norvegicus; assay: Inhibition of serotonin -induced dermal vascular permeability in rats at a intraperitoneal dose of 100 mg/kg 1 hr prior to challenge; settings: ip
[4] = tested on: Rattus norvegicus; assay: Inhibition of bradykinin-induced dermal vascular permeability in rats at a intraperitoneal dose of 100 mg/kg 1 hr prior to challenge; settings: ip
[5] = tested on: Rattus norvegicus; assay: Inhibition of histamine -induced dermal vascular permeability in rats at a intraperitoneal dose of 100 mg/kg 1 hr prior to challenge; settings: ip
[6] = tested on: Rattus norvegicus; assay: Inhibition of histamine -induced dermal vascular permeability in rats at a peroral dose of 100 mg/kg 1 hr prior to challenge; settings: route oral
[7] = tested on: Rattus norvegicus; assay: Inhibition of serotonin -induced dermal vascular permeability in rats at a peroral dose of 100 mg/kg 1 hr prior to challenge; settings: route oral
[8] = tested on: Rattus norvegicus; assay: Inhibition of bradykinin-induced dermal vascular permeability in rats at a peroral dose of 100 mg/kg 1 hr prior to challenge; settings: route oral
[9] = tested on: Rattus norvegicus; assay: Antiallergic activity of edema in the active anaphylaxis assay at a peroral dose of 100 mg/kg in rats; settings: route oral
[10] = tested on: Rattus norvegicus; assay: Antiallergic activity evaluated as percent inhibition at peroral dose of 100 mg/kg in rats; settings: route oral

With `O=C1COC(Nc2ccccc2)=C1C(=O)Nc1ccccc1` the inhibition in vivo at 100 mg/kg [1] was 46% and the Activity [2] was 2.45.

`CCOC(=O)C1=C(NC2CC2c2ccc(Cl)cc2)OCC1=O` (stereo unspecified) gave an inhibition in vivo at 100 mg/kg [3] of 51%, an inhibition in vivo at 100 mg/kg [4] of 76% and an inhibition in vivo at 100 mg/kg [5] of 60%.

With `Cc1ccccc1NC(=O)C1=C(Nc2ccccc2C)OCC1=O` the inhibition in vivo at 100 mg/kg [3] was 9%, the inhibition in vivo at 100 mg/kg [4] was 7% and the inhibition in vivo at 100 mg/kg [5] was 0%.

`CCOC(=O)C1=C(Nc2ccccc2)OC(C)(C)C1=O` was tested, and the inhibition in vivo at 100 mg/kg [1] was 16% and the Activity [2] was 7.71.

`O=C(O)C1=C(Nc2cccc3ccccc23)OCC1=O` gave an inhibition in vivo at 100 mg/kg [1] of 64% and an Activity [2] of 1.2.

In the case of `O=C(O)C1=C(Nc2cccc(C(F)(F)F)c2)OCC1=O`, the inhibition in vivo at 100 mg/kg [6] is reported as 26%, the inhibition in vivo at 100 mg/kg [7] is reported as 40% and the inhibition in vivo at 100 mg/kg [1] is reported as 45%. The Activity [2] was 3.35 and the inhibition in vivo at 100 mg/kg [8] was 54%.

Compound `CN1CCC(=C2c3ccccc3C=Cc3ccccc32)CC1` [CYPROHEPTADINE HYDROCHLORIDE] has an inhibition in vivo at 100 mg/kg [3] of 93%, an inhibition in vivo at 100 mg/kg [4] of 23% and an inhibition in vivo at 100 mg/kg [5] of 93%.

Work on `O=C1COC(Nc2ccc(Cl)cc2)=C1C(=O)Nc1ccc(Cl)cc1` yielded an inhibition in vivo at 100 mg/kg [3] of 14%, an inhibition in vivo at 100 mg/kg [4] of 44% and an inhibition in vivo at 100 mg/kg [5] of 15%.

`CCOC(=O)C1=C(Nc2ccc(C(=O)OCC)cc2)OCC1=O` gave an inhibition in vivo at 100 mg/kg [6] of 21%, an inhibition in vivo at 100 mg/kg [7] of 18% and an inhibition in vivo at 100 mg/kg [8] of 21%.

In the case of `CCOC(=O)C1=C(Nc2ccc(Cl)cc2)OCC1=O`, the inhibition in vivo at 100 mg/kg [6] is reported as 3.3%, the inhibition in vivo at 100 mg/kg [7] is reported as 6.6% and the inhibition in vivo at 100 mg/kg [8] is reported as 9.5%.

Compound `CC1OC(Nc2ccccc2)=C(C(=O)O)C1=O` (stereo unspecified) has an inhibition in vivo at 100 mg/kg [1] of 60% and an Activity [2] of 2.

`O=C(O)C1=C(Nc2ccccc2)OCC1=O` gave an Inhibition [1] of 81% and an Activity [2] of 0.47.

`O=C(O)C1=C(NC2CC2c2ccc(Cl)cc2)OCC1=O` (stereo unspecified) gave an inhibition in vivo at 100 mg/kg [3] of 54%, an inhibition in vivo at 100 mg/kg [4] of 71% and an inhibition in vivo at 100 mg/kg [1] of 6%. For the same compound, the inhibition in vivo at 100 mg/kg [5] was 56% and the Activity [2] was 4.1.

For `CC1(C)OC(Nc2ccccc2)=C(C(=O)O)C1=O`, the inhibition in vivo at 100 mg/kg [1] was 44% and the Activity [2] was 1.95.

Work on `COc1ccc(NC(=O)C2=C(Nc3ccc(OC)cc3)OCC2=O)cc1` yielded an inhibition in vivo at 100 mg/kg [3] of 13%, an inhibition in vivo at 100 mg/kg [4] of 39% and an inhibition in vivo at 100 mg/kg [5] of 8%.

With `O=C([O-])C1=C(NC2CC2c2ccccc2)OCC1=O.[Na+]` (stereo unspecified) the inhibition in vivo at 100 mg/kg [1] was 22% and the Activity [2] was 3.72.

For `CCOC(=O)C1=C(NC2CC2c2ccccc2)OCC1=O` (stereo unspecified), the inhibition in vivo at 100 mg/kg [6] was 35%, the inhibition in vivo at 100 mg/kg [7] was 57% and the inhibition in vivo at 100 mg/kg [8] was 59%.

With `Cn1c(=O)c2nc[nH]c2n(C)c1=O.O` [THEOPHYLLINE] the Activity [9] was 3.75 and the inhibition in vivo at 100 mg/kg [10] was 66%.

In the case of `CCOC(=O)C1=C(Nc2cccc(C(F)(F)F)c2)OCC1=O`, the inhibition in vivo at 100 mg/kg [6] is reported as 4.1%, the inhibition in vivo at 100 mg/kg [7] is reported as 9.7% and the inhibition in vivo at 100 mg/kg [8] is reported as 40%.

`O=C(O)C1=C(Nc2ccc(C(=O)O)cc2)OCC1=O` was tested, and the inhibition in vivo at 100 mg/kg [3] was 63%, the inhibition in vivo at 100 mg/kg [4] was 64% and the inhibition in vivo at 100 mg/kg [1] was 52%. The inhibition in vivo at 100 mg/kg [5] was 64% and the Activity [2] was 2.

Work on `COc1ccccc1NC(=O)C1=C(Nc2ccccc2OC)OCC1=O` yielded an inhibition in vivo at 100 mg/kg [3] of 18%, an inhibition in vivo at 100 mg/kg [4] of 39% and an inhibition in vivo at 100 mg/kg [5] of 1%.

For `O=C(O)C1=C(Nc2cccc([N+](=O)[O-])c2)OCC1=O`, the inhibition in vivo at 100 mg/kg [3] was 18%, the inhibition in vivo at 100 mg/kg [4] was 48% and the inhibition in vivo at 100 mg/kg [1] was 39%. It also gave an inhibition in vivo at 100 mg/kg [5] of 16% and an Activity [2] of 7.29.

`O=C([O-])C1=C(Nc2ccccc2)OCC1=O.[Na+]` was tested, and the Inhibition [1] was 17% and the Activity [2] was 2.75.

Compound `O=C(O)C1=C(Nc2ccc(Br)cc2)OCC1=O` has an inhibition in vivo at 100 mg/kg [6] of 45%, an inhibition in vivo at 100 mg/kg [7] of 39% and an inhibition in vivo at 100 mg/kg [1] of 27%. For the same compound, the Activity [2] was 3.24 and the inhibition in vivo at 100 mg/kg [8] was 68%.

For `COc1ccccc1NC1=C(C(=O)O)C(=O)CO1`, the inhibition in vivo at 100 mg/kg [6] was 27%, the inhibition in vivo at 100 mg/kg [7] was 30% and the inhibition in vivo at 100 mg/kg [1] was 45%. The Activity [2] was 3.45 and the inhibition in vivo at 100 mg/kg [8] was 38%.

Compound `CCOC(=O)C1=C(Nc2ccccc2)OC(C)C1=O` (stereo unspecified) has an inhibition in vivo at 100 mg/kg [3] of 37%, an inhibition in vivo at 100 mg/kg [4] of 46% and an inhibition in vivo at 100 mg/kg [1] of 61%. The inhibition in vivo at 100 mg/kg [5] was 40% and the Activity [2] was 1.44.

With `CCOC(=O)C1=C(NC)OCC1=O` the inhibition in vivo at 100 mg/kg [3] was 38%, the inhibition in vivo at 100 mg/kg [4] was 25% and the inhibition in vivo at 100 mg/kg [5] was 50%.

Compound `Cc1ccc(C2CC2NC2=C(C(=O)O)C(=O)CO2)cc1` (stereo unspecified) has an inhibition in vivo at 100 mg/kg [3] of 100%, an inhibition in vivo at 100 mg/kg [4] of 100% and an inhibition in vivo at 100 mg/kg [1] of 45%. It also gave an inhibition in vivo at 100 mg/kg [5] of 100% and an Activity [2] of 1.58.
